Experimental findings from US11584763B2, “Chromenopyridine derivatives as phosphatidylinositol phosphate kinase inhibitors” (HIBERCELL, INC., priority 2017, dated 2023) are described below.

What all share (type): biochemical
For one experiment, the target named is T1, PIP4K2B (Homo sapiens, UniProt P78356).
T1 construct: made in house; host or cells: E. coli
T1 sequence (P78356 1-416): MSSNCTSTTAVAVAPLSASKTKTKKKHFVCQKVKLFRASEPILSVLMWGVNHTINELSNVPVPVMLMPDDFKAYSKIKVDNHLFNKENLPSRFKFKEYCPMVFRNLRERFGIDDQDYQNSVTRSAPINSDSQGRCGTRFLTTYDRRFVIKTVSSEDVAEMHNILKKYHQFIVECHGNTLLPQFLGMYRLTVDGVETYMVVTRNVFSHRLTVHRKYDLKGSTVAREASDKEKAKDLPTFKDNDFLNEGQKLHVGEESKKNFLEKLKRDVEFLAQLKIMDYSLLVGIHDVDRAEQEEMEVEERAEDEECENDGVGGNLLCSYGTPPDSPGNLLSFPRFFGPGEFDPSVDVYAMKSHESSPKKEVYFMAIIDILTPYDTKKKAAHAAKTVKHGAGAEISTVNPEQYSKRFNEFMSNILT
The experiment in a line: Trans-FI P kinase assay PIP4K2B (PIP4KtypeIIB inhibition assay). To be noted: compounds listed under IC50 bin headings; 100 uM GTP; read-out: Trans-FI P kinase assays: PIP4K2B IC50. In outline: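 Transcreener FI fluorescence read-out of GDP formed by E. coli-expressed GST-PIP4K2B (5 nM) using 100 uM GTP and 80 uM PI5P with DOPE carrier lipid, pH 7.3, 2 h reaction. Compounds (up to 4.8 uM) were preincubated with enzyme 1 h at 27 C; IC50 fitted from residual activity relative to no-inhibitor control.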

Experiment [1] concerns the target T2, PIP4K 2A (Homo sapiens, UniProt P48426).
T2 sequence (P48426 1-406): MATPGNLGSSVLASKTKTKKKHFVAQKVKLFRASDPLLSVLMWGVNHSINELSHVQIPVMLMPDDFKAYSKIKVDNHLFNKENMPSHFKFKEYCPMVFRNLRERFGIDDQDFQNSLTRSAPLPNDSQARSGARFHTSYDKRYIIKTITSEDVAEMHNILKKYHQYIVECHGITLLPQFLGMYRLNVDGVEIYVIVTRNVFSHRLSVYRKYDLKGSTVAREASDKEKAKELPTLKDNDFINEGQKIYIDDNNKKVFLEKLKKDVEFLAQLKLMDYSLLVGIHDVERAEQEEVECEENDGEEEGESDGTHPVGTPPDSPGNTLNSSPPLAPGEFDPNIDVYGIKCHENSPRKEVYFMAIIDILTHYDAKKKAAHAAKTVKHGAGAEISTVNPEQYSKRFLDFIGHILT
As to the kind of experiment: Kinase Assay PIP4K2 A (PIP4KtypeIIA inhibition assay). Also on record: made in house; host or cells: E. coli. The settings on record: compounds listed under IC50 bin headings. The source says:
GST tagged PIP4KtypeIIA and B enzymes were overexpressed in E. Coli and purified to >80% homogeneity. Phosphatidyl inositol-5-phosphate (PI5P, Cat. #850152, Avanti Polar Lipids Inc.) was used as the lipid substrate and phosphatidyl ethanolamine (DOPE 18:1, Cat. #850725, Avanti Polar Lipids Inc.) was used as the carrier lipid for assays. Ultrapure ATP and GTP was purchased from Bellbrooke Labs. ADP Glo reagents were obtained from Promega. Transcreener FI reagent was obtained from Bellbrooke labs.
Enzyme preparation: GST-tagged PIP4KtypeIIA (5 uL, 1.43 mg/mL) was diluted (1:10) to 50 uL using HNE buffer. From the 1:10 diluted stock, a 6.4 uL aliquot was diluted further to 5 mL using HNE buffer to yield 5× enzyme stock (2.5 nM).
Lipid Preparation: In a 10 mL pyrex glass vial, 1 ug of PI5P and 1 ug of DOPE were suspended in 2.5 mL of HEPES buffer mix and 2.5 mL of H:E buffer. The contents were mixed and sonicated for 3 min to yield a translucent lipid stock.
Compound Preparation: Compounds were stored as 5 mM stocks in neat DMSO as room temperature in glass vials. 5 mM stocks were diluted to 2 mM and then serially diluted (3×) in neat DMSO in 96 well polypropylene plates. From the serially diluted stocks, 3 uL was delivered into 250 uL of 25% DMSO (in water) to generate 5× compound stocks. Typically, the highest compound conc. was 24 uM.
The assay volume was kept at 25 uL. To each well of the reaction plate, 10 uL of lipid stock (1:1 ratio PI5P:DOPE) was delivered. This was followed by the addition of 5 uL of compound in 25% DMSO. Then, to each well, 5 uL of 2.5 nM (5×) typeIIA enzyme was delivered. The contents were mixed well and incubated for 1 h at 27 C. After 1 h, reaction was initiated by adding 5 uL of 50 uM ATP and the contents were mixed well with a multi-channel pipetteman. The final concentration of the reagents are as follows: 50 mM HEPES, pH 7.3, 10 mM MgCl2, 20 mM NaCl, 0.01% v/v triton-X100, 5% DMSO, 10 uM ATP, 80 uM (2 ug) PI5P, 2 ug DOPE, and 0.5 nM PIP4KIIA. Typically, the highest conc. of compounds was 4.8 uM and the lowest conc. was 0.
After 1 hr, the reaction was quenched by adding 25 uL of ADP Glo reagent. The contents were incubated for 1 hr. Afterwards, 50 uL of kinase detection reagent was delivered. The contents were incubated for another hour. The luminescence was read using Molecular Devices Paradigm plate reader. […] The blanks were averaged and subtracted from all other wells. Using a calibration curve, RLU was converted to uM ADP (product). IC50 was calculated by plotting the residual activity (expressed as % No inhibitor control) vs. log [Inh. conc.]

Experiment [2] has as its target T2, PIP4K 2A. As to the kind of experiment: ADP-glo kinase assay PIP4K 2A. Also on record: 4 nM PIP4K2A (full length protein, SignalChem); purchased SignalChem. To be noted: compounds listed under IC50 bin headings. In outline: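 Inhibition was calculated versus DMSO controls from ADP-Glo luminescence and fitted to IC50 over a 10-point, threefold series. Compound was first pre-incubated 15 min at room temperature with PIP4K2A (full-length; 4 nM in the enzyme/substrate mix) and PI(5)P diC8 (100 μM in that mix). The reaction then ran for 1 h after adding 60 μM ATP solution, in MOPS pH 7.2/MgCl2/Tween buffer.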

With `CC1Oc2cc(N3CCCC3=O)ccc2-c2cnc(Nc3cncc(N4CCN(Cc5cscn5)C4=O)c3)cc21` (stereo not drawn) [Example 56, 1-(5-((5-methyl-8-(2-oxopyrrolidin-1-yl)-5H-chromeno[4,3-c]pyridin-3-yl)amino)pyridin-3-yl)-3-(thiazol-4-ylmethyl)imidazolidin-2-one], the IC50 on PIP4K2B was 1 to 10 nM; at PIP4K 2A [1], at most 1 nM; on PIP4K 2A [2], at most 1 nM.

As for `CC1Oc2cc(N3CCCC3=O)ccc2-c2cnc(Nc3cnc4ccn(S(C)(=O)=O)c4c3)cc21` (stereo not drawn) [Example 57, 1-(5-methyl-3-((1-(methylsulfonyl)-1H-pyrrolo[3,2-b]pyridin-6-yl)amino)-5H-chromeno[4,3-c]pyridin-8-yl)pyrrolidin-2-one], the IC50 on PIP4K2B is 10 to 100 nM; against PIP4K 2A [1], at most 1 nM; on PIP4K 2A [2], 1 to 10 nM.

Regarding `CC1Oc2cc(N3CCCC3=O)ccc2-c2cnc(Nc3cnc4c(c3)N(C(=O)C3(O)CC3)CCO4)cc21` (stereo not drawn) [Example 58, 1-(3-((1-(1-hydroxycyclopropane-1-carbonyl)-2,3-dihydro-1H-pyrido[2,3-b][1,4]oxazin-7-yl)amino)-5-methyl-5H-chromeno[4,3-c]pyridin-8-yl)pyrrolidin-2-one], the half-inhibitory concentration (IC50) was 1 to 10 nM on PIP4K2B, at most 1 nM at PIP4K 2A [1] and at most 1 nM against PIP4K 2A [2].

With `CC1Oc2cc(N3CCCC3=O)ccc2-c2cnc(Nc3cnc4c(c3)N(C(=O)C(C)(C)O)CCO4)cc21` (stereo not drawn) [Example 59, 1-(3-((1-(2-hydroxy-2-methylpropanoyl)-2,3-dihydro-1H-pyrido[2,3-b][1,4]oxazin-7-yl)amino)-5-methyl-5H-chromeno[4,3-c]pyridin-8-yl)pyrrolidin-2-one], the values for the IC50 at PIP4K2B, on PIP4K 2A [1] and at PIP4K 2A [2] were 1 to 10 nM, at most 1 nM and at most 1 nM, respectively.

For `CC(O)C(=O)N1CCOc2ncc(Nc3cc4c(cn3)-c3ccc(N5CCCC5=O)cc3OC4C)cc21` (stereo not drawn) [Example 60, 1-(3-((1-(2-hydroxypropanoyl)-2,3-dihydro-1H-pyrido[2,3-b][1,4]oxazin-7-yl)amino)-5-methyl-5H-chromeno[4,3-c]pyridin-8-yl)pyrrolidin-2-one], the values for the IC50 at PIP4K2B, against PIP4K 2A [1] and against PIP4K 2A [2] were 1 to 10 nM, at most 1 nM and at most 1 nM, respectively.

Take `CC1Oc2cc(N3CCCC3=O)ccc2-c2cnc(Nc3cnc4c(c3)N(C(=O)CO)CCO4)cc21` (stereo not drawn) [Example 61, 1-(3-((1-(2-hydroxyacetyl)-2,3-dihydro-1H-pyrido[2,3-b][1,4]oxazin-7-yl)amino)-5-methyl-5H-chromeno[4,3-c]pyridin-8-yl)pyrrolidin-2-one]: the IC50 at PIP4K2B was 1 to 10 nM; against PIP4K 2A [1], at most 1 nM; at PIP4K 2A [2] it was at most 1 nM.

`CC1Oc2cc(N3CCCC3=O)ccc2-c2cnc(Nc3cnc4c(c3)OCCO4)cc21` (stereo not drawn) [Example 62, 1-(3-((2,3-dihydro-[1,4]dioxino[2,3-b]pyridin-7-yl)amino)-5-methyl-5H-chromeno[4,3-c]pyridin-8-yl)pyrrolidin-2-one]: the IC50 at PIP4K2B was 10 to 100 nM; against PIP4K 2A [1] it was at most 1 nM; against PIP4K 2A [2] it was 1 to 10 nM.

As for `CC1Oc2cc(N3CCCC3=O)ccc2-c2cnc(Nc3cnc4nccnc4c3)cc21` (stereo not drawn) [Example 63, 1-(5-methyl-3-(pyrido[2,3-b]pyrazin-7-ylamino)-5H-chromeno[4,3-c]pyridin-8-yl)pyrrolidin-2-one], the IC50 at PIP4K2B lay within 100 to 1000 nM; against PIP4K 2A [1], 1 to 10 nM; on PIP4K 2A [2] it was 1 to 10 nM.

Consider `CC1Oc2cc(N3CCCC3=O)ccc2-c2cnc(Nc3cnc4cccnc4c3)cc21` (stereo not drawn) [Example 64, 1-(3-((1,5-naphthyridin-3-yl)amino)-5-methyl-5H-chromeno[4,3-c]pyridin-8-yl)pyrrolidin-2-one], for which the IC50 at PIP4K2B fell in the range of 100 to 1000 nM; at PIP4K 2A [1], 1 to 10 nM; on PIP4K 2A [2], 10 to 100 nM.

On to `CC1Oc2cc(N3CCCC3=O)ccc2-c2cnc(Nc3cnc4scnc4c3)cc21` (stereo not drawn) [Example 65, 1-(5-methyl-3-(thiazolo[5,4-b]pyridin-6-ylamino)-5H-chromeno[4,3-c]pyridin-8-yl)pyrrolidin-2-one], for which the values for the IC50 on PIP4K2B, on PIP4K 2A [1] and against PIP4K 2A [2] were 100 to 1000 nM, 1 to 10 nM and 10 to 100 nM, respectively.

Turning to `CC1Oc2cc(C(=O)N(C)C)ccc2-c2cnc(Nc3cnc4c(c3)N(C(=O)C(C)(C)C)CCO4)cc21` (stereo not drawn) [Example 67, N,N,5-trimethyl-3-((1-pivaloyl-2,3-dihydro-1H-pyrido[2,3-b][1,4]oxazin-7-yl)amino)-5H-chromeno[4,3-c]pyridine-8-carboxamide], the IC50 at PIP4K2B is 1 to 10 nM; against PIP4K 2A [1], at most 1 nM; on PIP4K 2A [2], at most 1 nM.

For `CC1Oc2cc(C(=O)N(C)C)ccc2-c2cnc(Nc3cnc4c(c3)N(C(=O)C3CC3)CCO4)cc21` (stereo not drawn) [Example 68, 3-((1-(cyclopropanecarbonyl)-2,3-dihydro-1H-pyrido[2,3-b][1,4]oxazin-7-yl)amino)-N,N,5-trimethyl-5H-chromeno[4,3-c]pyridine-8-carboxamide], the values for the IC50 at PIP4K2B, against PIP4K 2A [1] and at PIP4K 2A [2] were 1 to 10 nM, at most 1 nM and at most 1 nM, respectively.

Regarding `COC(=O)N1CCOc2ncc(Nc3cc4c(cn3)-c3ccc(C(=O)N(C)C)cc3OC4C)cc21` (stereo not drawn) [Example 69, methyl 7-((8-(dimethylcarbamoyl)-5-methyl-5H-chromeno[4,3-c]pyridin-3-yl)amino)-2,3-dihydro-1H-pyrido[2,3-b][1,4]oxazine-1-carboxylate], the IC50 was 1 to 10 nM on PIP4K2B, at most 1 nM at PIP4K 2A [1] and at most 1 nM against PIP4K 2A [2].

Regarding `CC(=O)N1CCOc2ncc(Nc3cc4c(cn3)-c3ccc(C(=O)N(C)C)cc3OC4C)cc21` (stereo not drawn) [Example 70, 3-((1-acetyl-2,3-dihydro-1H-pyrido[2,3-b][1,4]oxazin-7-yl)amino)-N,N,5-trimethyl-5H-chromeno[4,3-c]pyridine-8-carboxamide], the IC50 at PIP4K2B is 1 to 10 nM; against PIP4K 2A [1], at most 1 nM; against PIP4K 2A [2], at most 1 nM.

By IC50 is commonly meant the concentration that inhibits the measured activity by half.
